Test results published in article PMC13198257, “An aerosolized dual-action autotaxin inhibitor-PPARγ agonist for the treatment of pulmonary fibrosis” (Cell Reports Medicine, 2026).

Tested on: lung gene expression
Assay: RNA sequencing of lung tissue (BLM/EL244 vs BLM)
Assay type: in vivo, mouse
Conditions: lung tissue, BLM/EL244 vs BLM
Description: RNA quality was assessed using an Agilent TapeStation 4150 with the High Sensitivity […] ScreenTape (Agilent), according to the manufacturer’s protocols. For library preparation, the QuantSeq 3’mRNA-Seq Library Prep Kit (Lexogen) was used according to manufacturer’s instructions. Briefly, 500 ng of RNA from each sample was used for first-strand synthesis, followed by RNA template removal, and second-strand synthesis initiated by random primers. In-line barcodes were introduced at this step, and this was followed by magnetic bead-based purification. The resulting libraries were amplified for 15 cycles and re-purified, with quantity and quality assessed on a Qubit 4 Fluorometer with the Invitrogen Qubit dsDNA HS Assay and an Agilent Tapestation 4150 with the High Sensitivity D1000 assay kit, respectively. The quantified libraries were pooled equimolarly; 50ng of total library mix was used for Adapter Conversion PCR Amplification using the Universal Library Conversion Kit (App-A), Version: V1.0 (MGI Tech Co., Ltd.), according to the manufacturer’s instructions.
The quantity and quality of the purified adapter conversion PCR (AC-PCR) product were evaluated on a Qubit 4 Fluorometer with the Invitrogen Qubit dsDNA HS Assay and on an Agilent Tapestation 4150 with the High Sensitivity D1000 assay kit, respectively. This was followed by DNA denaturation, Single-Strand Circularisation, Enzymatic Digestion, Enzymatic Digestion Product Cleanup and Quality Control steps on 1 pmol of AC-PCR product, according to the Universal Library Conversion Kit (App-A) User Manual (Version: A3).
Finally, 60 fmol of ssCirDNA were used for DNB preparation and sequencing on a DNBSEQ-G400 platform at the BSRC Alexander Fleming Genomics Facility, using a G400 App-A FCS SE100 High-throughput Sequencing Set (MGI Tech Co., Ltd.), according to the manufacturer’s instructions.
Alignment of the FASTQ files was performed against the mouse genome build mm10 using a custom Bash script.[143] Read counting on the 3′ UTRs and differential expression analysis were conducted using the metaseqR2 bioconductor package.[144] Genes corresponding to the following biotypes were excluded: polymorphic_pseudogene, processed_transcript, pseudogene, IG_V_pseudogene, misc_RNA, IG_C_gene, IG_J_gene, IG_D_gene, IG_LV_gene, TR_V_gene, TR_V_pseudogene, TEC, and processed_pseudogene. Gene counts were normalized with DESEQ[145] through metaseqR2. Genes with more than 10 counts in at least 50% of the samples were kept for further processing. For differential expression analysis, the PANDORA algorithm[146] was used to estimate a meta p-value integrating the results from the DESEQ, DESEQ2,[147] edgeR,[148] limma,[149] NBPSeq,[150] and NOISeq[151] algorithms. All additional parameters were set to default values.
Pathway enrichment analysis was performed for the Gene Ontology Biological process (BP) and Molecular Function (MF) terms through GeneCodis 4.[152] The volcano plots, scatterplots, Venn diagrams, and dot plots were generated using the ggplot2 Bioconductor package.

O=C1NC(=O)C(Cc2ccc(OCCC3CCN(C(=O)OCc4cc(Cl)cc(Cl)c4)CC3)cc2)S1 (centres unmarked) [EL244, 3,5-dichlorobenzyl 4-(2-(4-((2,4-dioxothiazolidin-5-yl)methyl)phenoxy)ethyl)piperidine-1-carboxylate]
Evi2a nFC: 0.57 | Fam120b log2 nFC: 0.61 | Fam120b nFC: 1.53 | Fbln5 log2 nFC: -0.64 | Fbln5 nFC: 0.64 | Fcer1g log2 nFC: -0.80 | Fcer1g nFC: 0.57 | Flt1 log2 nFC: 0.58 | Flt1 nFC: 1.50 | Fmod log2 nFC: -1.79 | Fmod nFC: 0.29 | Fn1 log2 nFC: -1.69 | Fn1 nFC: 0.31 | Foxm1 log2 nFC: -1.56 | Foxm1 nFC: 0.34 | Gas7 log2 nFC: -0.82 | Gas7 nFC: 0.57 | Gatm log2 nFC: -1.79 | Gatm nFC: 0.29 | Gen1 log2 nFC: -1.63 | Gen1 nFC: 0.32 | Gins2 log2 nFC: -1.57 | Gins2 nFC: 0.34 | Gja4 log2 nFC: -0.81 | Gja4 nFC: 0.57 | Gm9844 log2 nFC: -0.79 | Gm9844 nFC: 0.58 | Gm22774 log2 nFC: -2.05 | Gm22774 nFC: 0.24 | Gm23451 log2 nFC: -1.99 | Gm23451 nFC: 0.25 | Gm49673 log2 nFC: -0.71 | Gm49673 nFC: 0.61 | Gpc1 log2 nFC: -0.80 | Gpc1 nFC: 0.57 | Gtse1 log2 nFC: -1.49 | Gtse1 nFC: 0.36 | Gxylt2 log2 nFC: -1.47 | Gxylt2 nFC: 0.36 | Gyg log2 nFC: -0.60 | Gyg nFC: 0.66 | H2-Aa log2 nFC: -0.68 | H2-Aa nFC: 0.62 | H2-Eb1 log2 nFC: -0.70 | H2-Eb1 nFC: 0.62 | H2-M2 log2 nFC: -1.86 | H2-M2 nFC: 0.27 | H2ac11 log2 nFC: -1.45 | H2ac11 nFC: 0.37 | H2ac12 log2 nFC: -1.44 | H2ac12 nFC: 0.37 | Hc log2 nFC: 0.67 | Hc nFC: 1.59 | Herpud1 log2 nFC: 0.64 | Herpud1 nFC: 1.56 | Hexb log2 nFC: -0.83 | Hexb nFC: 0.56 | Hhip log2 nFC: -0.72 | Hhip nFC: 0.61 | Hif1a log2 nFC: -0.69 | Hif1a nFC: 0.62 | Hist1h2ao log2 nFC: -1.60 | Hist1h2ao nFC: 0.33 | Hist1h2ap log2 nFC: -2.04 | Hist1h2ap nFC: 0.24 | Hmgn3 log2 nFC: -0.64 | Hmgn3 nFC: 0.64 | Ier3 log2 nFC: -0.63 | Ier3 nFC: 0.65 | Igf1 log2 nFC: -1.60 | Igf1 nFC: 0.33 | Igfbp4 log2 nFC: -0.58 | Igfbp4 nFC: 0.67 | Inhba log2 nFC: -2.22 | Inhba nFC: 0.21 | Iqgap3 log2 nFC: -2.41 | Iqgap3 nFC: 0.19 | Itgax log2 nFC: -0.80 | Itgax nFC: 0.58 | Jpt1 log2 nFC: -0.68 | Jpt1 nFC: 0.63 | Kank3 log2 nFC: 0.61 | Kank3 nFC: 1.53 | Kif2c log2 nFC: -1.67 | Kif2c nFC: 0.32 | Kif11 log2 nFC: -1.74 | Kif11 nFC: 0.30 | Kif14 log2 nFC: -1.56 | Kif14 nFC: 0.34 | Kif15 log2 nFC: -1.89 | Kif15 nFC: 0.27 | Kif20a log2 nFC: -2.52 | Kif20a nFC: 0.17 | Knstrn log2 nFC: -2.52 | Knstrn nFC: 0.17 | Lama1 log2 nFC: -2.43 | Lama1 nFC: 0.19 | Lap3 log2 nFC: -0.71 | Lap3 nFC: 0.61 | Lbh log2 nFC: -0.66 | Lbh nFC: 0.63 | Lgals3 log2 nFC: -0.80 | Lgals3 nFC: 0.57 | Lipa log2 nFC: -0.78 | Lipa nFC: 0.58 | Lmnb2 log2 nFC: -0.70 | Lmnb2 nFC: 0.62 | Lockd log2 nFC: -1.59 | Lockd nFC: 0.33 | Lox log2 nFC: -0.69 | Lox nFC: 0.62 | Loxl1 log2 nFC: -0.69 | Loxl1 nFC: 0.62 | Lpl log2 nFC: -0.68 | Lpl nFC: 0.62 | Ltbp2 log2 nFC: -1.44 | Ltbp2 nFC: 0.37 | Map2 log2 nFC: -0.67 | Map2 nFC: 0.63 | Mat2a log2 nFC: 0.59 | Mat2a nFC: 1.50 | Matk log2 nFC: -1.42 | Matk nFC: 0.37 | Mcm2 log2 nFC: -0.80 | Mcm2 nFC: 0.57 | Mcm3 log2 nFC: -0.84 | Mcm3 nFC: 0.56 | Mcm6 log2 nFC: -0.76 | Mcm6 nFC: 0.59 | Melk log2 nFC: -1.65 | Melk nFC: 0.32 | Mest log2 nFC: -2.27 | Mest nFC: 0.21 | Mex3a log2 nFC: -1.69 | Mex3a nFC: 0.31 | Mgl2 log2 nFC: -0.72 | Mgl2 nFC: 0.61 | Mif log2 nFC: -0.72 | Mif nFC: 0.61 | Mir147 log2 nFC: -1.44 | Mir147 nFC: 0.37 | Mis18bp1 log2 nFC: -1.46 | Mis18bp1 nFC: 0.36 | Mki67 log2 nFC: -1.62 | Mki67 nFC: 0.33 | Mmp2 log2 nFC: -0.81 | Mmp2 nFC: 0.57 | Mmp12 log2 nFC: -2.48 | Mmp12 nFC: 0.18 | Mmp13 log2 nFC: -1.80 | Mmp13 nFC: 0.29 | Ms4a7 log2 nFC: -1.49 | Ms4a7 nFC: 0.36 | Msr1 log2 nFC: -1.44 | Msr1 nFC: 0.37 | Mybpc2 log2 nFC: -2.17 | Mybpc2 nFC: 0.22 | Nans log2 nFC: -0.72 | Nans nFC: 0.61 | Nek6 log2 nFC: -0.68 | Nek6 nFC: 0.63 | Nipal3 log2 nFC: 0.64 | Nipal3 nFC: 1.56 | Npr2 log2 nFC: 0.59 | Npr2 nFC: 1.50 | Ntrk2 log2 nFC: -1.60 | Ntrk2 nFC: 0.33 | Nup93 log2 nFC: -0.64 | Nup93 nFC: 0.64 | Nusap1 log2 nFC: -2.02 | Nusap1 nFC: 0.25 | Nwd2 log2 nFC: -1.51 | Nwd2 nFC: 0.35 | Oaf log2 nFC: -0.81 | Oaf nFC: 0.57 | Olfml2b log2 nFC: -0.82 | Olfml2b nFC: 0.57 | Ooep log2 nFC: -1.51 | Ooep nFC: 0.35 | Otud7b log2 nFC: 0.61 | Otud7b nFC: 1.53 | P3h1 log2 nFC: -0.85 | P3h1 nFC: 0.55 | P4ha3 log2 nFC: -2.15 | P4ha3 nFC: 0.23 | Pbk log2 nFC: -2.73 | Pbk nFC: 0.15 | Pclaf log2 nFC: -2.08 | Pclaf nFC: 0.24 | Pcmtd1 log2 nFC: 0.63 | Pcmtd1 nFC: 1.54 | Pdgfc log2 nFC: -1.47 | Pdgfc nFC: 0.36 | Pdzd2 log2 nFC: 0.60 | Pdzd2 nFC: 1.52 | Phactr2 log2 nFC: 0.63 | Phactr2 nFC: 1.54 | Pianp log2 nFC: -1.75 | Pianp nFC: 0.30 | Pla1a log2 nFC: -1.42 | Pla1a nFC: 0.37 | Pld4 log2 nFC: -0.66 | Pld4 nFC: 0.63 | Plk1 log2 nFC: -1.89 | Plk1 nFC: 0.27 | Plk2 log2 nFC: -0.82 | Plk2 nFC: 0.57 | Plpp3 log2 nFC: 0.65 | Plpp3 nFC: 1.57 | Plxdc2 log2 nFC: 0.61 | Plxdc2 nFC: 1.53 | Pmepa1 log2 nFC: -0.76 | Pmepa1 nFC: 0.59 | Pole2 log2 nFC: -1.50 | Pole2 nFC: 0.35 | Pole log2 nFC: -1.58 | Pole nFC: 0.34 | Por log2 nFC: 0.66 | Por nFC: 1.58 | Ppa1 log2 nFC: -0.71 | Ppa1 nFC: 0.61 | Ppp1r9a log2 nFC: 0.61 | Ppp1r9a nFC: 1.53 | Prc1 log2 nFC: -2.31 | Prc1 nFC: 0.20 | Prcp log2 nFC: -0.69 | Prcp nFC: 0.62 | Prdx1 log2 nFC: -0.62 | Prdx1 nFC: 0.65 | Prrx2 log2 nFC: -1.75
